Experimental data taken from US20210380548A1, “Fused [1,2,4]Thiadiazine Derivatives Which Act as KAT Inhibitors of the MYST Family” (CTxT Pty Limited, priority 2017, published 2021).

Columns and labels:
TIP60-KAT5 [1] = molecular target: T1, TIP60-KAT5 (Homo sapiens, UniProt Q92993); assay: Revised Acetyltransferase Biochemical Assay, KAT5; details: 10 nM KAT5, 1 μM AcCoA, 100 nM histone H4, 90 min
T1 construct: encoding amino acid residues 2 to 461 (Uniprot Q92993-2) of human KAT5 isoform; made in house; host or cells: E. coli BL21 DE3

MOZ-KAT6A = molecular target: T2, MOZ-KAT6A (Homo sapiens, UniProt Q92794, A567V); assay: Revised Acetyltransferase Biochemical Assay, KAT6A; details: Table 8 (MOZ-KAT6A), 1 μM Acetyl coenzyme A
T2 construct: encoding amino acid residues 507 to 778 (Uniprot Q92794-1) of human KAT6A; made in house; host or cells: E. coli BL21 DE3

HBO-KAT7 [2] = molecular target: T3, HBO-KAT7 (Homo sapiens, UniProt O95251); assay: Revised Acetyltransferase Biochemical Assay, KAT7; details: Table 9 (HBO-KAT7), 1 μM Acetyl coenzyme A
T3 construct: encoding amino acid residues 325 to 611 (Uniprot 095251-1) of human KAT7; made in house; host or cells: E. coli BL21 DE3 RIL

TIP60-KAT5 [3] = molecular target: T1, TIP60-KAT5; assay: Acetyltransferase biochemical assay (AlphaScreen), KAT5; details: Table 1 (TIP60-KAT5); 0.4 μM Acetyl coenzyme A, histone H4, 10 nM enzyme
HBO-KAT7 [4] = molecular target: T3, HBO-KAT7; assay: Acetyltransferase biochemical assay (AlphaScreen), KAT7; details: Table 3 (HBO-KAT7); 0.4 μM Acetyl coenzyme A, histone H3.1, 40 nM enzyme

T3 sequence (O95251 with tags, fused parts or gaps): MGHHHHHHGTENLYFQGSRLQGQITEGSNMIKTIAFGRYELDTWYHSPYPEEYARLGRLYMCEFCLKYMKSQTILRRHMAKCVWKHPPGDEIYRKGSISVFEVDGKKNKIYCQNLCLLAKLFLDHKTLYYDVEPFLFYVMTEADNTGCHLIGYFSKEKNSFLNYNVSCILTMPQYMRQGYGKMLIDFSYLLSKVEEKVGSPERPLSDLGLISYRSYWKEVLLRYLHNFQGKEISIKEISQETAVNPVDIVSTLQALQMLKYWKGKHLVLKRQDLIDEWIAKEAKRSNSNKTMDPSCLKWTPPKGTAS
T2 sequence (Q92794 507-778 A567V limits assumed): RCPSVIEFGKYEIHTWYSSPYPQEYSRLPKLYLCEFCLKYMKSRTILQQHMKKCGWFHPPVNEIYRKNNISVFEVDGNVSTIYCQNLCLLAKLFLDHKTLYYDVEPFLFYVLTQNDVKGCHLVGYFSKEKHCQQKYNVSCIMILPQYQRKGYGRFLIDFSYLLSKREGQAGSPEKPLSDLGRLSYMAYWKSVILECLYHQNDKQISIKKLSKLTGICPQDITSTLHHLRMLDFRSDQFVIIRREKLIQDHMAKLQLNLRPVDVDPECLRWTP
T1 sequence (Q92993 2-461 isoform Q92993-2): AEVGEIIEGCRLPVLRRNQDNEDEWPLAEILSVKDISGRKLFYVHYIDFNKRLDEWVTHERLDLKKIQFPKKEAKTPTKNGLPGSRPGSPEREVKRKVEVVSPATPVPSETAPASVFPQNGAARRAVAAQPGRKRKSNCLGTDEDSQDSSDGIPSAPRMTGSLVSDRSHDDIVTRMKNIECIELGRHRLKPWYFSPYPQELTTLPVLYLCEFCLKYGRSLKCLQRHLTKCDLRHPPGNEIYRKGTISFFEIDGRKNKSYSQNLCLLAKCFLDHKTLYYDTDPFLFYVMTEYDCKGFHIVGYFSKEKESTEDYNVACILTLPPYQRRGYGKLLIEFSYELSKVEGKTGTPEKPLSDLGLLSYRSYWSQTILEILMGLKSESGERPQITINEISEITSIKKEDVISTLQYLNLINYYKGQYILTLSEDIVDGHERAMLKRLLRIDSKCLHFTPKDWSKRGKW

Row | Structure (SMILES) | IC50 (TIP60-KAT5 [1]) | IC50 (MOZ-KAT6A) | IC50 (HBO-KAT7 [2]) | IC50 (TIP60-KAT5 [3]) | IC50 (HBO-KAT7 [4])
1 | COc1ccccc1C(O)CNC(=O)C1=Nc2ccc(I)cc2S(=O)(=O)N1 (single isomer, unassigned) [Example 150] | 1.38 µM | 1.02 µM | 3.59 µM | 3.17 µM | –
2 | Cc1ncccc1-c1ccccc1CCNC(=O)C1=Nc2ccccc2S(=O)(=O)N1 [Example 6, N-(2-(2-Methylpyridin-3-yl)phenethyl)-2H-benzo[e][1,2,4]thiadiazine-3-carboxamide 1,1-dioxide] | > 125 µM | 18.7 µM | 21.3 µM | 90.1 µM | –
3 | O=C(NCCc1ccccc1C(=O)O)C1=Nc2ccccc2S(=O)(=O)N1 [Example 30, 2-(2-(1,1-Dioxido-2H-benzo[e][1,2,4]thiadiazine-3-carboxamido)ethyl)benzoic Acid] | – | – | – | 112 µM | –
4 | Cn1cc(-c2ccccc2CCNC(=O)C2=Nc3ccccc3S(=O)(=O)N2)cn1 [Example 40, N-(2-(1-methyl-1H-pyrazol-4-yl)phenethyl)-2H-benzo[e][1,2,4]thiadiazine-3-carboxamide 1,1-dioxide] | – | – | – | > 125 µM | 9.45 µM
5 | C#Cc1ccc2c(c1)S(=O)(=O)NC(C(=O)NCC(c1ccccc1)c1ncco1)=N2 (stereo not shown) [Example 42, 7-ethynyl-N-(2-(oxazol-2-yl)-2-phenylethyl)-2H-benzo[e][1,2,4]thiadiazine-3-carboxamide 1,1-dioxide] | – | – | – | 0.642 µM | 0.255 µM
6 | O=C(NCC(C(=O)N1CCCC1)c1ccccc1)C1=Nc2ccccc2S(=O)(=O)N1 (stereo not shown) [Example 44, N-(3-oxo-2-phenyl-3-(pyrrolidin-1-yl)propyl)-2H-benzo[e][1,2,4]thiadiazine-3-carboxamide 1,1-dioxide] | – | – | – | > 125 µM | –
7 | CC(C)OC(=O)NC(CNC(=O)C1=Nc2ccccc2S(=O)(=O)N1)c1ccccc1 (stereo not shown) [Example 50, Isopropyl (2-(1,1-dioxido-2H-benzo[e][1,2,4]thiadiazine-3-carboxamido)-1-phenylethyl) carbamate] | > 125 µM | 6.19 µM | 49.1 µM | – | –
8 | COC(CNC(=O)C1=Nc2ccc(I)cc2S(=O)(=O)N1)c1ccccc1OC(F)F (stereo not shown) [Example 58, N-(2-(2-(difluoromethoxy)phenyl)-2-methoxyethyl)-7-iodo-2H-benzo[e][1,2,4]thiadiazine-3-carboxamide 1,1-dioxide] | – | – | – | 2.58 µM | 1.59 µM
9 | CCOC(=O)C(CNC(=O)C1=Nc2ccccc2S(=O)(=O)N1)c1ccccc1 (stereo not shown) [Example 73, ethyl 3-(1,1-dioxido-2H-benzo[e][1,2,4]thiadiazine-3-carboxamido)-2-phenylpropanoate] | – | – | – | 10.1 µM | 26.4 µM
10 | O=C(NCC(O)c1ccccc1F)C1=Nc2ccc(I)cc2S(=O)(=O)N1 (stereo not shown) [Example 89] | – | – | – | 2.06 µM | 3.37 µM
11 | O=C(NCCc1ccccc1O)C1=Nc2ccc(I)cc2S(=O)(=O)N1 [Example 90] | – | – | – | 0.96 µM | 0.915 µM
12 | COc1ccccc1C(O)CNC(=O)C1=Nc2ccc(I)cc2S(=O)(=O)N1 (stereo not shown) [Example 94] | – | – | – | 2.82 µM | 3.8 µM
13 | O=C(NCC(O)c1ccccc1C(F)(F)F)C1=Nc2ccc(I)cc2S(=O)(=O)N1 (stereo not shown) [Example 95] | – | – | – | 5.18 µM | 4.22 µM
14 | O=C(NCCc1ccc(CO)cc1)C1=Nc2ccc(I)cc2S(=O)(=O)N1 [Example 103] | – | – | – | > 125 µM | > 125 µM
15 | O=C(NCCc1ccncc1)C1=Nc2ccc(I)cc2S(=O)(=O)N1 [Example 104] | – | – | – | > 125 µM | > 125 µM
16 | O=C(NCCc1ccc(O)cc1)C1=Nc2ccc(I)cc2S(=O)(=O)N1 [Example 105] | – | – | – | 46.3 µM | > 125 µM
17 | COc1ccc(CCNC(=O)C2=Nc3ccc(I)cc3S(=O)(=O)N2)cc1 [Example 106] | – | – | – | > 125 µM | > 125 µM
18 | O=C(NCCc1ccccc1CO)C1=Nc2ccc(I)cc2S(=O)(=O)N1 [Example 109, N-(2-(hydroxymethyl)phenethyl)-7-iodo-2H-benzo[e][1,2,4]thiadiazine-3-carboxamide 1,1-dioxide] | – | – | – | 3.42 µM | 5.95 µM
19 | CNC(=O)c1ccccc1CCNC(=O)C1=Nc2ccc(I)cc2S(=O)(=O)N1 [Example 110] | – | – | – | 75.6 µM | 101 µM
20 | CN(C)C(=O)c1ccccc1CCNC(=O)C1=Nc2ccc(I)cc2S(=O)(=O)N1 [Example 111] | – | – | – | 16.6 µM | 81.4 µM
21 | O=C(NCC(O)c1ccccc1OCc1ccccc1)C1=Nc2ccc(I)cc2S(=O)(=O)N1 (stereo not shown) [Example 119] | – | – | – | 5.26 µM | 18.5 µM

Row | Structure (SMILES) | IC50 (TIP60-KAT5 [1]) | IC50 (MOZ-KAT6A) | IC50 (HBO-KAT7 [2]) | IC50 (TIP60-KAT5 [3]) | IC50 (HBO-KAT7 [4])
22 | COc1cccc(C(O)CNC(=O)C2=Nc3ccc(I)cc3S(=O)(=O)N2)c1 (stereo not shown) [Example 121] | – | – | – | 40.8 µM | 47 µM
23 | O=C(NCC(F)c1ccccc1)C1=Nc2ccc(I)cc2S(=O)(=O)N1 (stereo not shown) [Example 123] | – | – | – | 5.01 µM | 1.72 µM
24 | O=C(NCC(O)c1cccc(Cl)c1)C1=Nc2ccc(I)cc2S(=O)(=O)N1 (stereo not shown) [Example 124] | – | – | – | 24.6 µM | 18.7 µM
25 | O=C(NCC(O)c1ccc(Cl)cc1)C1=Nc2ccc(I)cc2S(=O)(=O)N1 (stereo not shown) [Example 125] | – | – | – | > 125 µM | > 125 µM
26 | O=C(NCC(O)c1cccc(F)c1)C1=Nc2ccc(I)cc2S(=O)(=O)N1 (stereo not shown) [Example 126] | – | – | – | 31.3 µM | 12.4 µM
27 | O=C(NCCc1ccccc1C(=O)O)C1=Nc2ccc(I)cc2S(=O)(=O)N1 [Example 155, 2-(2-(7-Iodo-1,1-dioxido-2H-benzo[e][1,2,4]thiadiazine-3-carboxamido)ethyl)benzoic Acid] | 2.68 µM | 0.595 µM | 9.52 µM | – | –
28 | O=C(NCC(c1ccccc1)c1nnc(C(F)F)o1)C1=Nc2ccc(I)cc2S(=O)(=O)N1 (stereo not shown) [Example 185] | 0.994 µM | 0.042 µM | 0.264 µM | – | –
29 | O=C(NCCc1ccccc1-n1ccnc1)C1=Nc2ccc(I)cc2S(=O)(=O)N1 [Example 192] | 11.1 µM | 0.613 µM | 2.3 µM | – | –
30 | COCc1ccccc1C(CNC(=O)C1=Nc2ccccc2S(=O)(=O)N1)c1ncco1 (stereo not shown) [Example 194] | ≥ 125 µM | 5.56 µM | 26 µM | – | –
31 | O=C(NCCc1ccccc1-c1n[nH]c(=O)o1)C1=Nc2ccccc2S(=O)(=O)N1 [Example 195] | 1.85 µM | 0.209 µM | 2.21 µM | – | –
32 | O=C(NCC(O)C1CCCCC1)C1=Nc2ccc(Cl)cc2S(=O)(=O)N1 (stereo not shown) [Example 200] | > 125 µM | 9.8 µM | > 125 µM | – | –
33 | O=C(NCC1(c2ccccc2)CCCC1)C1=Nc2ccccc2S(=O)(=O)N1 [Example 205] | 30 µM | 0.97 µM | 2.73 µM | – | –
34 | CC(N)c1ccc2c(c1)S(=O)(=O)NC(C(=O)NCC(c1ccccc1)c1ncco1)=N2 (stereo not shown) [Example 208, 7-(1-Aminoethyl)-N-(2-(oxazol-2-yl)-2-phenylethyl)-2H-benzo[e][1,2,4]thiadiazine-3-carboxamide 1,1-dioxide] | 13.3 µM | 1.6 µM | 4.51 µM | – | –
35 | CNC(C)c1ccc2c(c1)S(=O)(=O)NC(C(=O)NCC(c1ccccc1)c1ncco1)=N2 (stereo not shown) [Example 209, 7-(1-(Methylamino)ethyl)-N-(2-(oxazol-2-yl)-2-phenylethyl)-2H-benzo[e][1,2,4]thiadiazine-3-carboxamide 1,1-dioxide] | 8.45 µM | 0.378 µM | 1.67 µM | – | –
36 | CC(NS(C)(=O)=O)c1ccc2c(c1)S(=O)(=O)NC(C(=O)NCC(c1ccccc1)c1ncco1)=N2 (stereo not shown) [Example 210, 7-(1-(Methylsulfonamido)ethyl)-N-(2-(oxazol-2-yl)-2-phenylethyl)-2H-benzo[e][1,2,4]thiadiazine-3-carboxamide 1,1-dioxide] | 10.9 µM | 0.303 µM | 1.12 µM | – | –
37 | CC(=O)NC(C)c1ccc2c(c1)S(=O)(=O)NC(C(=O)NCC(c1ccccc1)c1ncco1)=N2 (stereo not shown) [Example 211, 7-(1-Acetamidoethyl)-N-(2-(oxazol-2-yl)-2-phenylethyl)-2H-benzo[e][1,2,4]thiadiazine-3-carboxamide 1,1-dioxide] | 24.7 µM | 2.18 µM | 6.07 µM | – | –
38 | COc1ccc2c(c1)S(=O)(=O)NC(C(=O)NCC(c1cccc(Cl)c1)c1ncco1)=N2 (stereo not shown) [Example 223, N-(2-(3-Chlorophenyl)-2-(oxazol-2-yl)ethyl)-7-methoxy-2H-benzo[e][1,2,4]thiadiazine-3-carboxamide 1,1-dioxide] | 3.32 µM | 0.216 µM | 1.01 µM | – | –
39 | O=C(NCC(c1cccc(Cl)c1)c1ncco1)C1=Nc2ccc(O)cc2S(=O)(=O)N1 (stereo not shown) [Example 224, N-(2-(3-chlorophenyl)-2-(oxazol-2-yl)ethyl)-7-hydroxy-2H-benzo[e][1,2,4]thiadiazine-3-carboxamide 1,1-dioxide] | 9.01 µM | 0.165 µM | 0.204 µM | – | –
40 | NC(=O)c1ccccc1CCNC(=O)C1=Nc2ccc(I)cc2S(=O)(=O)N1 [Example 230, N-(2-Carbamoylphenethyl)-7-iodo-2H-benzo[e][1,2,4]thiadiazine-3-carboxamide 1,1-dioxide] | 4.9 µM | 0.761 µM | 2.3 µM | – | –
41 | O=C(NCC1(c2ncco2)CCCC1)C1=Nc2ccccc2S(=O)(=O)N1 [Example 242, N-((1-(oxazol-2-yl)cyclopentyl)methyl)-2H-benzo[e][1,2,4]thiadiazine-3-carboxamide 1,1-dioxide] | 123 µM | 2.77 µM | 33 µM | – | –
